Consider nine compounds from the supplement of paper PMC11061612.

Common to all, as to experiment: Bliss excess, mean over the matrix (fraction); higher = more synergy
Test [1] relates to MLMA (Other Blood Carcinomas). A digest of the protocol:
(§1)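 Cell lines in DMEM/F12 or RPMI with 10% FBS were plated in 1536-well plates, held 24 hours at 37°C, 5% CO2, then given two-drug dose matrices for 72 hours (DMSO typically 0.2%). Viability was read by CellTiter-Glo 2.0 luminescence and scaled as inhibition from 0 (vehicle wells) to 1 (blank wells). Combination Emax is the second-highest inhibition in the matrix; Bliss excess is observed combination effect minus expected EA + EB − EA·EB, EA and EB being single-agent effects.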

The subject of test [2] is EFM-19 (Breast Carcinoma). The essentials: as §1
The test system of test [3] is EoL-1-cell (Acute Myeloid Leukemia). The essentials: as §1
Test [4] relates to KARPAS-299 (T-Cell Non-Hodgkin's Lymphoma). A digest of the protocol: as §1
A further test deals with TGW (Neuroblastoma). The essentials: as §1
For test [5], the system named is KYSE-450 (Esophageal Squamous Cell Carcinoma). The essentials: as §1
The subject of test [6] is NCI-H727 (Other Solid Carcinomas). A digest of the protocol: as §1
Test [7] has as its system LU-65 (Non-Small Cell Lung Carcinoma). A digest of the protocol: as §1
A further test has as its system EW-24 (Ewing's Sarcoma). A digest of the protocol: as §1
The test system of test [8] is Hs-766T (Pancreatic Carcinoma). The essentials:
as §1

Test [9] concerns MIA-PaCa-2 (Pancreatic Carcinoma). The essentials:
as §1

A further test has as its system YH-13 (Glioblastoma). A digest of the protocol: as §1
The subject of test [10] is BT-549 (Breast Carcinoma). The essentials:
as §1

Test [11] has as its system Caov-4 (Ovarian Carcinoma). The essentials:
as §1

As for `C=CCn1c(=O)c2cnc(Nc3ccc(N4CCN(C)CC4)cc3)nc2n1-c1cccc(C(C)(C)O)n1` [AZD1775] + CCc1c2c(nc3ccc(O)cc13)-c1cc3c(c(=O)n1C2)COC(=O)[C@]3(O)CC [SN-38] (first compound max 1 µM, partner max 0.3 µM), the Bliss excess in test [1] was -0.0639; in test [2], -0.0175; in [3] it was 0.0324; in test [4], -0.042; in the test with TGW (Neuroblastoma), -0.0592; in test [5], 0.0358. Moreover, the Bliss excess is -0.0018 in test [6]; -0.0127 in test [7]; -0.113 with EW-24 (Ewing's Sarcoma); 0.0017 in test [8]; 0.0699 in test [9]; -0.0262 in the test on YH-13 (Glioblastoma). Moreover, the Bliss excess is -0.057 in test [10] and -0.0557 in test [11].

For `C=CCn1c(=O)c2cnc(Nc3ccc(N4CCN(C)CC4)cc3)nc2n1-c1cccc(C(C)(C)O)n1` [AZD1775] + Nc1ccn([C@@H]2O[C@H](CO)[C@@H](O)C2(F)F)c(=O)n1 [Gemcitabine] (first compound max 1 µM, partner max 0.3 µM), the Bliss excess was -0.0797 in test [1]; 0.0061 in test [2]; 0.0391 in [3]; 0.0851 in test [4]; -0.0355 in the test with TGW (Neuroblastoma); 0.0717 in [5]. Moreover, the Bliss excess in [6] was -0.0278; in test [7], -0.0081; in the test on EW-24 (Ewing's Sarcoma), -0.0627; in test [8], -0.0742; in test [9] it was 0.0459; in the test on YH-13 (Glioblastoma), 0.0208. Also, the Bliss excess in test [10] was -0.0069; in test [11], 0.

In the case of `CN(CCO)CC[C@H](CSc1ccccc1)Nc1ccc(S(=O)(=O)NC(=O)c2ccc(N3CCC([C@@H](O)c4ccccc4-c4ccc(Cl)cc4)CC3)cc2)cc1S(=O)(=O)C(F)(F)F` [AZD4320] + CS(=O)(=O)CCNCc1ccc(-c2ccc3ncnc(Nc4ccc(OCc5cccc(F)c5)c(Cl)c4)c3c2)o1 [Lapatinib] (first compound max 1 µM, 7x7, partner max 10 µM), the Bliss excess in test [1] was 0.014; in test [2], 0.013; in test [3], 0.05; in test [4] it was 0.0265; in the test with TGW (Neuroblastoma) it was 0.0959; in test [5] it was -0.0459. Moreover, the Bliss excess in test [6] was 0.0904; in [7], -0.0043; in the test on EW-24 (Ewing's Sarcoma), 0.0333; in test [8], -0.0586; in test [9], 0.0373; in the test on YH-13 (Glioblastoma), 0.0183. For the same compound, the Bliss excess in test [10] is -0.0188; in test [11], -0.0144.

For the compound `Cc1c2c(nn1C)CSCc1cc(n(C)n1)CSc1cc(c3ccccc3c1)OCCCc1c(C(=O)O)n(C)c3c-2c(Cl)ccc13` [AZD5991] + CC(=O)O[C@H]1C(=O)[C@@]2(C)[C@H]([C@H](OC(=O)c3ccccc3)[C@]3(O)C[C@H](OC(=O)[C@H](O)[C@@H](NC(=O)c4ccccc4)c4ccccc4)C(C)=C1C3(C)C)[C@]1(OC(C)=O)CO[C@@H]1C[C@@H]2O [Paclitaxel] (first compound max 1 µM, 7x7, partner max 3 µM), the Bliss excess is -0.0803 in test [1]; 0.0948 in test [2]; -0.0041 in test [3]; -0.0693 in test [4]; -0.0235 in the test on TGW (Neuroblastoma); 0.0363 in test [5]. Besides, the Bliss excess in test [6] was -0.025; in test [7] it was -0.0944; with EW-24 (Ewing's Sarcoma), 0.0289; in test [8] it was -0.0539; in the test with YH-13 (Glioblastoma), 0.0246; in test [10] it was 0.0124. The Bliss excess in test [11] was 0.0995.

As for `Cc1c2c(nn1C)CSCc1cc(n(C)n1)CSc1cc(c3ccccc3c1)OCCCc1c(C(=O)O)n(C)c3c-2c(Cl)ccc13` [AZD5991] + CS(=O)(=O)CCNCc1ccc(-c2ccc3ncnc(Nc4ccc(OCc5cccc(F)c5)c(Cl)c4)c3c2)o1 [Lapatinib] (first compound max 1 µM, 7x7, partner max 10 µM), the Bliss excess in [1] is -0.0474; in [2] it was -0.0035; in test [4] it was 0.0227; with TGW (Neuroblastoma), -0.0015; in [5], -0.0108; in test [6], -0.0013. For the same compound, the Bliss excess is 0.0232 in test [7]; -0.0526 in test [8]; -0.0094 in [9]; -0.042 in test [10]; 0.0835 in test [11].

With `Cc1c2c(nn1C)CSCc1cc(n(C)n1)CSc1cc(c3ccccc3c1)OCCCc1c(C(=O)O)n(C)c3c-2c(Cl)ccc13` [AZD5991] + Nc1ccn([C@@H]2O[C@H](CO)[C@@H](O)C2(F)F)c(=O)n1 [Gemcitabine] (first compound max 1 µM, 7x7, partner max 0.3 µM), the Bliss excess was -0.0451 in [1]; 0.0744 in [2]; -0.0123 in [3]; -0.0188 in [4]; 0.007 in the test on TGW (Neuroblastoma); -0.0267 in [5]. Further, the Bliss excess in [6] was -0.0394; in test [7] it was -0.0251; in the test on EW-24 (Ewing's Sarcoma), 0.0048; in [8] it was -0.0234; in [9], 0.0137; in the test on YH-13 (Glioblastoma) it was 0.0143. Also, the values for the Bliss excess in [10] and in test [11] were 0.0278 and -0.0312, respectively.

As for `C[C@@H]1COCCN1c1cc(C2([S@](C)(=N)=O)CC2)nc(-c2ccnc3[nH]ccc23)n1` [AZD6738] + C1CC(C1)(C(=O)[O-])C(=O)[O-].N.N.[Pt+2] [Carboplatin] (first compound max 10 µM, 7x7, partner max 10 µM), the Bliss excess is -0.102 in test [1]; -0.0328 in test [2]; -0.0132 in [3]; -0.0261 in test [4]; -0.0765 in the test with TGW (Neuroblastoma); -0.0386 in test [5]. Also, the Bliss excess in test [6] is -0.0445; in test [7] it was -0.0954; with EW-24 (Ewing's Sarcoma), -0.0462; in test [8], -0.0536; in test [9] it was -0.0272; with YH-13 (Glioblastoma), -0.0453. The Bliss excess in test [10] was -0.0453; in [11], -0.0209.

`C[C@@H]1COCCN1c1cc(C2([S@](C)(=N)=O)CC2)nc(-c2ccnc3[nH]ccc23)n1` [AZD6738] + Nc1ccn([C@@H]2O[C@H](CO)[C@@H](O)C2(F)F)c(=O)n1 [Gemcitabine] (first compound max 10 µM, 7x7, partner max 0.3 µM): the Bliss excess in test [1] was -0.0777; in [2] it was 0.127; in test [3], -0.081; in [4] it was 0.0607; in the test on TGW (Neuroblastoma), 0.0013; in test [5], 0.104. The Bliss excess in test [6] is 0.0121; in [7], 0.0191; with EW-24 (Ewing's Sarcoma), 0.0086; in test [8], -0.0278; in [9], 0.0999; in the test on YH-13 (Glioblastoma) it was 0.0228. Further, the Bliss excess in [10] was -0.0194; in [11] it was 0.0431.

As to `C[C@@H](Nc1cc(F)cc(F)c1)c1cc(C(=O)N(C)C)cc2c(=O)cc(N3CCOCC3)oc12` [AZD8186] + C1CN(CCC1(C(=O)N[C@@H](CCO)C2=CC=C(C=C2)Cl)N)C3=NC=NC4=C3C=CN4 [AZD5363] (first compound max 10 µM, 7x7, partner max 10 µM), the Bliss excess in test [1] is -0.0797; in [2], -0.0075; in [3], 0; in test [4], 0.0092; in the test with TGW (Neuroblastoma) it was -0.0683; in test [5], 0.0035. For the same compound, the Bliss excess in [6] is -0.0149; in [7], -0.0629; with EW-24 (Ewing's Sarcoma), -0.0033; in [8] it was -0.0078; in test [9], 0.0056; with YH-13 (Glioblastoma) it was 0.0106. Further, the Bliss excess in test [10] is -0.0011; in [11] it was -0.0338.
